Measured values taken from patent US9108944B2, “Androgen receptor modulators and uses thereof” (ARAGON PHARMACEUTICALS, INC., priority 2010, dated 2015).

Target: T1, AR-VP16 (Homo sapiens, UniProt P10275)
T1 sequence (P10275 560-920 limits assumed): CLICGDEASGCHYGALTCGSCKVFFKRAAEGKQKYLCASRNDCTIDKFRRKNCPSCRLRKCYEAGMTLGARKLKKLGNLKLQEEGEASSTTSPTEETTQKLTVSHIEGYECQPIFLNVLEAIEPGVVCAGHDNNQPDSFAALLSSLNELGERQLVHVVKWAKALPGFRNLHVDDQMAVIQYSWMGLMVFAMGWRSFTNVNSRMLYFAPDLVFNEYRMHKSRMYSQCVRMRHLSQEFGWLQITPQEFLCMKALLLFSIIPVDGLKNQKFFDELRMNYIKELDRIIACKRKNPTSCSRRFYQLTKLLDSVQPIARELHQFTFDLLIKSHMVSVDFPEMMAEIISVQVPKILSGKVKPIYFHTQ
Test: AR-VP16 DNA Binding Assay, antagonist mode (HepG2 cells, 0.1 nM R1881)
Format: cell-based
How it was run: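 HepG2 cells transiently transfected with AR-VP16 (Lipofectin), incubated overnight, then treated with compound in RPMI with charcoal-stripped serum. Antagonist mode adds R1881 at 0.1 nM final. Cells lysed after 48 h incubation for read-out.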

`N#Cc1ncc(N2C(=O)C3(CCC3)N(c3ccc(Oc4ncccn4)cc3)C2=S)cc1C(F)(F)F` [Compound 206, 5-(8-Oxo-5-(4-(pyrimidin-2-yloxy)phenyl)-6-thioxo-5,7-diazaspiro[3.4]octan-7-yl)-3-(trifluoromethyl)picolinonitrile] and `N#Cc1ncc(N2C(=O)C3(CCC3)N(c3ccc4ccccc4c3)C2=S)cc1C(F)(F)F` [Compound 9, 5-(5-(Naphthalen-2-yl)-8-oxo-6-thioxo-5,7-diazaspiro[3.4]octan-7-yl)-3-(trifluoromethyl)picolinonitrile] cannot be ordered by IC50: < 1000 nM for the first, < 1000 nM for the second.

First: CNC(=O)c1ccc(N2C(=S)N(c3cnc(C#N)c(C(F)(F)F)c3)C(=O)C23CCC3)cc1 [Compound 79, 4-(7-(6-Cyano-5-(trifluoromethyl)pyridin-3-yl)-8-oxo-6-thioxo-5,7-diazaspiro[3.4]octan-5-yl)-N-methylbenzamide]
Second: CNS(=O)(=O)c1ccc(N2C(=S)N(c3cnc(C#N)c(C(F)(F)F)c3)C(=O)C23CCC3)cc1 [Compound 120, 4-(7-(6-Cyano-5-(trifluoromethyl)pyridin-3-yl)-8-oxo-6-thioxo-5,7-diazaspiro[3.4]octan-5-yl)-N-methylbenzenesulfonamide]
The IC50 of the first is lower: < 1000 nM for the first, > 1000 nM for the second.

`CNC(=O)c1ccc(N2C(=S)N(c3cnc(C#N)c(C(F)(F)F)c3)C(=O)C2(C)C)cc1F` [Compound 43, 4-(3-(6-Cyano-5-(trifluoromethyl)pyridin-3-yl)-5,5-dimethyl-4-oxo-2-thioxoimidazolidin-1-yl)-2-fluoro-N-methylbenzamide] and `CCCNC(=O)c1ccc(N2C(=S)N(c3cnc(C#N)c(C(F)(F)F)c3)C(=O)C23CCC3)cc1F` [Compound 278, 4-(7-(6-Cyano-5-(trifluoromethyl)pyridin-3-yl)-8-oxo-6-thioxo-5,7-diazaspiro[3.4]octan-5-yl)-2-fluoro-N-propylbenzamide] cannot be ordered by IC50: < 1000 nM for the first, < 1000 nM for the second.

`N#Cc1ccc(N2C(=O)C3(CCC3)N(c3ccc(O)c(F)c3)C2=S)c2cccnc12` [Compound 55, 5-(5-(3-Fluoro-4-hydroxyphenyl)-8-oxo-6-thioxo-5,7-diazaspiro[3.4]octan-7-yl)quinoline-8-carbonitrile] and `CNC(=O)c1ccc(N2C(=S)N(c3ccc(C#N)c4ncccc34)C(=O)C23CCC3)cc1F` [Compound 37, 4-(7-(8-Cyanoquinolin-5-yl)-8-oxo-6-thioxo-5,7-diazaspiro[3.4]octan-5-yl)-2-fluoro-N-methylbenzamide] cannot be ordered by IC50: < 1000 nM for the first, < 1000 nM for the second.

`N#Cc1ncc(N2C(=O)C3(CCC3)N(c3ccc4[nH]ncc4c3)C2=S)cc1C(F)(F)F` [Compound 87, 5-(5-(1H-Indazol-5-yl)-8-oxo-6-thioxo-5,7-diazaspiro[3.4]octan-7-yl)-3-(trifluoromethyl)picolinonitrile] and `N#Cc1ccc(N2C(=S)N(c3cnc(C#N)c(C(F)(F)F)c3)C(=O)C23CCC3)cc1F` [Compound 56, 5-(5-(4-Cyano-3-fluorophenyl)-8-oxo-6-thioxo-5,7-diazaspiro[3.4]octan-7-yl)-3-(trifluoromethyl)picolinonitrile] cannot be ordered by IC50: < 1000 nM for the first, < 1000 nM for the second.

Going from `CNC(=O)c1ccc(N2C(=S)N(c3cnc(C#N)c(Cl)c3)C(=O)C23CCC3)cc1F` [Compound 58, 4-(7-(5-Chloro-6-cyanopyridin-3-yl)-8-oxo-6-thioxo-5,7-diazaspiro[3.4]octan-5-yl)-2-fluoro-N-methylbenzamide] to `Cc1cc(N2C(=O)C3(CCC3)N(c3ccc(C(=O)NC4CCOCC4)c(F)c3)C2=S)cnc1C#N` [Compound 310, 4-(7-(6-Cyano-5-methylpyridin-3-yl)-8-oxo-6-thioxo-5,7-diazaspiro[3.4]octan-5-yl)-2-fluoro-N-(tetrahydro-2H-pyran-4-yl)benzamide], the IC50 rises from < 1000 nM to > 1000 nM.

`Cc1cc(N2C(=O)C3(CCC3)N(c3ccc(OCCN4CCN(CC(F)(F)F)CC4)cc3)C2=S)cnc1C#N` [Compound 199, 3-Methyl-5-(8-oxo-6-thioxo-5-(4-(2-(4-(2,2,2-trifluoroethyl)piperazin-1-yl)ethoxy)phenyl)-5,7-diazaspiro[3.4]octan-7-yl)picolinonitrile] and `Cc1cc(N2C(=O)C3(CCC3)N(c3ccc(OC4CCOCC4)cc3)C2=S)cnc1C#N` [Compound 194, 3-Methyl-5-(8-oxo-5-(4-((tetrahydro-2H-pyran-4-yl)oxy)phenyl)-6-thioxo-5,7-diazaspiro[3.4]octan-7-yl)picolinonitrile] cannot be ordered by IC50: < 1000 nM for the first, < 1000 nM for the second.

`N#Cc1ncc(N2C(=O)C3(CCC3)N(c3ccc(OCCCc4cccnc4)c(F)c3)C2=S)cc1C(F)(F)F` [Compound 145, 5-(5-(3-Fluoro-4-(3-(pyridin-3-yl)propoxy)phenyl)-8-oxo-6-thioxo-5,7-diazaspiro[3.4]octan-7-yl)-3-(trifluoromethyl)picolinonitrile] and `N#Cc1ncc(N2C(=O)C3(CCC3)N(c3ccc(OCCc4ccncc4)c(F)c3)C2=S)cc1C(F)(F)F` [Compound 142, 5-(5-(3-Fluoro-4-(2-(pyridin-4-yl)ethoxy)phenyl)-8-oxo-6-thioxo-5,7-diazaspiro[3.4]octan-7-yl)-3-(trifluoromethyl)picolinonitrile] cannot be ordered by IC50: < 1000 nM for the first, < 1000 nM for the second.

`N#Cc1ncc(N2C(=O)C3(CCC3)N(c3c(F)ccc(F)c3F)C2=S)cc1C(F)(F)F` [Compound 75, 5-(8-Oxo-6-thioxo-5-(2,3,6-trifluorophenyl)-5,7-diazaspiro[3.4]octan-7-yl)-3-(trifluoromethyl)picolinonitrile] and `N#Cc1ncc(N2C(=O)C3(CCC3)N(c3cc(F)ccc3F)C2=S)cc1C(F)(F)F` [Compound 74, 5-(5-(2,5-Difluorophenyl)-8-oxo-6-thioxo-5,7-diazaspiro[3.4]octan-7-yl)-3-(trifluoromethyl)picolinonitrile] cannot be ordered by IC50: < 1000 nM for the first, < 1000 nM for the second.

Going from `N#Cc1ncc(N2C(=O)C3(CCC3)N(c3cccnc3)C2=S)cc1C(F)(F)F` [Compound 19, 5-(8-Oxo-5-(pyridin-3-yl)-6-thioxo-5,7-diazaspiro[3.4]octan-7-yl)-3-(trifluoromethyl)picolinonitrile] to `N#Cc1ncc(N2C(=O)C3(CCC3)N(c3ccccc3)C2=S)cc1C(F)(F)F` [Compound 48, 5-(8-Oxo-5-phenyl-6-thioxo-5,7-diazaspiro[3.4]octan-7-yl)-3-(trifluoromethyl)picolinonitrile], the IC50 falls from > 1000 nM to < 1000 nM.

`Cc1cc(N2C(=O)C3(CCC3)N(c3ccc(C4CCOCC4)cc3)C2=S)cnc1C#N` [Compound 112, 3-Methyl-5-(8-oxo-5-(4-(tetrahydro-2H-pyran-4-yl)phenyl)-6-thioxo-5,7-diazaspiro[3.4]octan-7-yl)picolinonitrile] and `Cc1cc(N2C(=O)C3(CCC3)N(c3ccc(Oc4ccncn4)cc3)C2=S)cnc1C#N` [Compound 209, 3-Methyl-5-(8-oxo-5-(4-(pyrimidin-4-yloxy)phenyl)-6-thioxo-5,7-diazaspiro[3.4]octan-7-yl)picolinonitrile] cannot be ordered by IC50: < 1000 nM for the first, < 1000 nM for the second.

`N#Cc1ncc(N2C(=O)C3(CCC3)N(c3ccc(C(=O)NCc4cccnc4)c(F)c3)C2=S)cc1C(F)(F)F` [Compound 265, 4-(7-(6-Cyano-5-(trifluoromethyl)pyridin-3-yl)-8-oxo-6-thioxo-5,7-diazaspiro[3.4]octan-5-yl)-2-fluoro-N-(pyridin-3-ylmethyl)benzamide] and `N#Cc1ncc(N2C(=O)C3(CCC3)N(c3ccc(C(=O)NCc4ccccc4)c(F)c3)C2=S)cc1C(F)(F)F` [Compound 235, N-Benzyl-4-(7-(6-cyano-5-(trifluoromethyl)pyridin-3-yl)-8-oxo-6-thioxo-5,7-diazaspiro[3.4]octan-5-yl)-2-fluorobenzamide] cannot be ordered by IC50: < 1000 nM for the first, < 1000 nM for the second.

`N#Cc1ccc(N2C(=O)C3(CCC3)N(c3ccc(OCCc4ccccn4)c(F)c3)C2=S)c2cccnc12` [Compound 172, 5-(5-(3-Fluoro-4-(2-(pyridin-2-yl)ethoxy)phenyl)-8-oxo-6-thioxo-5,7-diazaspiro[3.4]octan-7-yl)quinoline-8-carbonitrile] and `Cc1ccc(N2C(=S)N(c3ccc(C#N)c4ccccc34)C(=O)C23CCC3)cc1` [Compound 94, 4-(8-Oxo-6-thioxo-5-(p-tolyl)-5,7-diazaspiro[3.4]octan-7-yl)-1-naphthonitrile] cannot be ordered by IC50: < 1000 nM for the first, < 1000 nM for the second.

`CN1CCC(Oc2ccc(N3C(=S)N(c4cnc(C#N)c(C(F)(F)F)c4)C(=O)C34CCC4)cc2F)CC1` [Compound 193, 5-(5-(3-Fluoro-4-((1-methylpiperidin-4-yl)oxy)phenyl)-8-oxo-6-thioxo-5,7-diazaspiro[3.4]octan-7-yl)-3-(trifluoromethyl)picolinonitrile] and `N#Cc1ncc(N2C(=O)C3(CCC3)N(c3ccc(C(=O)NC4CCCC4)c(F)c3)C2=S)cc1C(F)(F)F` [Compound 267, 4-(7-(6-Cyano-5-(trifluoromethyl)pyridin-3-yl)-8-oxo-6-thioxo-5,7-diazaspiro[3.4]octan-5-yl)-N-cyclopentyl-2-fluorobenzamide] cannot be ordered by IC50: < 1000 nM for the first, < 1000 nM for the second.

`CN(Cc1ccncc1)Cc1ccc(N2C(=S)N(c3cnc(C#N)c(C(F)(F)F)c3)C(=O)C23CCC3)cc1` [Compound 92, 5-(5-(4-((Methyl(pyridin-4-ylmethyl)amino)methyl)phenyl)-8-oxo-6-thioxo-5,7-diazaspiro[3.4]octan-7-yl)-3-(trifluoromethyl)picolinonitrile] and `CC(C)(C)OC(=O)N1CCN(c2ccc(N3C(=S)N(c4cnc(C#N)c(C(F)(F)F)c4)C(=O)C34CCC4)cc2)CC1` [Compound 119, tert-Butyl 4-(4-(7-(6-cyano-5-(trifluoromethyl)pyridin-3-yl)-8-oxo-6-thioxo-5,7-diazaspiro[3.4]octan-5-yl)phenyl)piperazine-1-carboxylate] cannot be ordered by IC50: < 1000 nM for the first, < 1000 nM for the second.
